The conditions of data set [1]: cited from earlier work.
The conditions of data set [2]: cited from earlier work. The source holds these as a separate data set.
For data set [3], the system named is Klebsiella pneumoniae PCI602. The experiment in a line: Antibacterial activity (minimum inhibitory concentration), tube dilution method. In kind it is cell-based. The settings on record: PCI602, tube dilution method, brain heart infusion broth (pH 7.5), read-out: minimum inhibitory concentration, Klebsiella pneumoniae PCI602. The method, then: (§1) The antibacterial activities of some typical compounds of this invention were measured by a tube dilution method in a brain heart infusion broth (pH 7.5) as a culture medium.

The test system of data set [4] is Staphylococcus aureus 209P. The data set is described as above. Type of data set: cell-based. The settings on record: tube dilution method, brain heart infusion broth (pH 7.5), read-out: minimum inhibitory concentration, Staphylococcus aureus 209P. The method, then:
as §1

The test system of data set [5] is Bacillus subtilis NRRL B558. Described as above. Conditions: Bacillus subtilis, NRRLB558; tube dilution method, brain heart infusion broth (pH 7.5); read-out: minimum inhibitory concentration, Bacillus subtilis NRRL B558. Type of data set: cell-based. The method, then:
as §1

In data set [6] the test system is Staphylococcus aureus MS9861. The data set is described as above. Type of data set: cell-based. The settings on record: Staphylococcus aureus, MS9861; tube dilution method, brain heart infusion broth (pH 7.5); read-out: minimum inhibitory concentration, Staphylococcus aureus MS9861. On the procedure: as §1

Values after ≈ are worked out from the molar mass of the structure shown.

The source of these data is US4463171A, “Derivatives of macrolide antibiotics” (Sanraku-Ocean Co., Ltd., priority 1982, dated 1984).

Consider `CC[C@H]1OC(=O)C[C@@H](O)[C@H](C)[C@@H](O[C@@H]2O[C@H](C)[C@@H](O[C@H]3C[C@@](C)(O)[C@@H](O)[C@H](C)O3)[C@H](N(C)C)[C@H]2O)[C@@H](CC=O)C[C@@H](C)C(=O)/C=C/C(C)=C/[C@@H]1CO[C@@H]1O[C@H](C)[C@@H](O)[C@@H](OC)[C@H]1OC` [tylosin], for which the “antibacterial activity in vitro” value in data set [1] is listed as “high antibacterial activity in vitro”. In data set [2], the “absorbability and excretability in vivo” value was “low”.

For the compound `CCC1OC(=O)CC(O)C(C)C(OC2OC(C)C(OC3CC(C)(O)C(OC(C)=O)C(C)O3)C(N(C)C)C2O)C(CC=O)CC(C)C(=O)C=CC(C)=CC1CO` (centres unmarked) [R1=H, R3=COCH3, AR4=OH], the MIC in data set [3] is 3.1 mg/L (≈ 3.95 µM); in data set [4] it was 1.6 mg/L (≈ 2.04 µM); in data set [5], 1.6 mg/L (≈ 2.04 µM); in data set [6], 25 mg/L (≈ 31.9 µM).

For `CCC1OC(=O)CC(O)C(C)C(OC2OC(C)C(OC3CC(C)(O)C(OC(=O)CSc4ccccc4)C(C)O3)C(N(C)C)C2O)C(CC=O)CC(C)C(=O)C=CC(C)=CC1CO` (centres unmarked) [R1=H, R3=drawing 67, AR4=OH], the MIC in data set [3] is 3.1 mg/L (≈ 3.47 µM); in data set [4], 0.4 mg/L (≈ 0.448 µM); in data set [5], under 0.2 mg/L; in data set [6] it was 3.1 mg/L (≈ 3.47 µM).

For `CCC1OC(=O)CC(O)C(C)C(OC2OC(C)C(OC3CC(C)(O)C(OC(=O)CC(C)C)C(C)O3)C(N(C)C)C2O)C(CC=O)CC(C)C(=O)C=CC(C)=CC1COC(=O)CC(C)C` (centres unmarked) [R1=H, R3=drawing 77, AR4=drawing 78], the MIC came out at 6.3 mg/L (≈ 6.92 µM) in data set [3], 1.6 mg/L (≈ 1.76 µM) in data set [4], 0.8 mg/L (≈ 0.879 µM) in data set [5] and 12.5 mg/L (≈ 13.7 µM) in data set [6].
